Assay results as given in article PMC10313671, “Accelerating the prediction and discovery of peptide hydrogels with human-in-the-loop” (Nature Communications, 2023).
Where a SMILES comes first, the peptide text is derived from it.

Experiments:
[1] = Transmission electron microscope (negative staining) of peptide assemblies; details: TEM, negative staining with uranyl acetate, 120 kV
Method: We used the negative staining technique to observe the morphologies formed by peptides. A micropipette was used to load 10 μL of sample solution to a carbon-coated copper grid, and we used a piece of filter paper to remove the excess solution. After rinsing the grid with the deionized water, we used uranyl acetate to stain the sample for 1 minute and then rinsed the grid with deionized water again.

[2] = Peptide hydrogel formation, vial-inverting method; type: physicochemical; design: key to EXP / GELATION: 0: no hydrogel; 1: hydrogel; details: for State: ultrasonication, standing 48 h; for State / GELATION: vial-inverting method; for Concentration: concentration at which the state was recorded: lowest of 30, 60, 90, 120 mM that gave a gel, 120 mM for non-gelating peptides; for GELATION: 1 = hydrogel, 0 = no hydrogel
Procedure, shortened: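 Gelation judged by vial inversion, a non-flowing self-supporting sample counting as hydrogel, after 48 h standing. Peptide in water at 30 mM first, escalating to 60, 90 and 120 mM if no gel; pH set to 6.5–8.5 by stepwise 1 N NaOH, each step sonicated briefly.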

[3] = 60 mM peptide in ultrapure water, pH 6.5-8.5 (1 N NaOH), no gel at 30 mM
[4] = 30 mM peptide in ultrapure water, pH adjusted to 6.5-8.5 with 1 N NaOH, concentration raised 30/60/90/120 mM until gelation
[5] = 120 mM peptide (highest tested) in ultrapure water, pH 6.5-8.5 (1 N NaOH), precipitate, sol, suspension = no gel

Row | Compound | Morphology ([1]; line of the table gives 60 mM) | State [2, 3] | Concentration [2] [µM] | GELATION ([2]; peptide concentration 60 mM) | Morphology ([1]; line of the table gives 30 mM) | State [2, 4] | GELATION ([2]; peptide concentration 30 mM) | Morphology ([1]; line of the table gives 120 mM) | State [2, 5] | GELATION ([2]; peptide concentration 120 mM)
1 | CC(C)C[C@H](NC(=O)[C@@H](N)CO)C(=O)N[C@H](C(=O)N[C@H](C(=O)O)C(C)C)C(C)C [SLVV] (H-SLVV-OH) | fibre | gel | 60000 | 1 | – | – | – | – | – | –
2 | CC[C@H](C)[C@H](NC(=O)[C@@H]1CCCN1)C(=O)N[C@@H](Cc1ccccc1)C(=O)N[C@@H](Cc1ccc(O)cc1)C(=O)O [PIFY] (H-PIFY-OH) | – | – | 30000 | – | sphere | gel | 1 | – | – | –
3 | CC(C)C[C@H](N)C(=O)NCC(=O)N[C@H](C(=O)N[C@@H](Cc1ccccc1)C(=O)O)C(C)C [LGVF] (H-LGVF-OH) | – | – | 120000 | – | – | – | – | fibre | sol | 0
4 | N[C@@H](Cc1ccccc1)C(=O)N[C@@H](Cc1ccccc1)C(=O)N[C@@H](Cc1ccc(O)cc1)C(=O)N[C@@H](Cc1ccc(O)cc1)C(=O)O [FFYY] (H-FFYY-OH) | – | – | 30000 | – | needle | gel | 1 | – | – | –
5 | CC(C)C[C@H](NC(=O)[C@H](Cc1c[nH]c2ccccc12)NC(=O)[C@@H](NC(=O)[C@@H](N)CCCCN)C(C)C)C(=O)O [KVWL] (H-KVWL-OH) | fibre | gel | 60000 | 1 | – | – | – | – | – | –
6 | CC(C)C[C@H](N)C(=O)N[C@H](C(=O)N[C@@H](Cc1ccccc1)C(=O)N[C@@H](Cc1ccccc1)C(=O)O)C(C)C [LVFF] | – | – | 30000 | – | sphere | gel | 1 | – | – | –
7 | NCCCC[C@H](NC(=O)[C@H](CCCCN)NC(=O)[C@H](CCC(=O)O)NC(=O)[C@@H](N)CCC(=O)O)C(=O)O [EEKK] (H-EEKK-OH) | – | – | 120000 | – | – | – | – | blank | sol | 0
8 | CC(C)[C@H](N)C(=O)N[C@@H](Cc1ccccc1)C(=O)N[C@H](C(=O)N[C@@H](Cc1ccccc1)C(=O)O)C(C)C [VFVF] (H-VFVF-OH) | – | – | 30000 | – | sheet | gel | 1 | – | – | –
9 | CC(C)C[C@H](NC(=O)[C@H](CC(C)C)NC(=O)[C@@H](N)CC(C)C)C(=O)N[C@@H](CO)C(=O)O [LLLS] (H-LLLS-OH) | – | – | 30000 | – | sheet | gel | 1 | – | – | –
10 | CC(C)[C@H](N)C(=O)N[C@@H](CO)C(=O)N[C@@H](Cc1c[nH]c2ccccc12)C(=O)N[C@@H](Cc1ccc(O)cc1)C(=O)O [VSWY] (H-VSWY-OH) | – | – | 120000 | – | – | – | – | particle | precipitate | 0
11 | CC[C@H](C)[C@H](NC(=O)[C@@H](NC(=O)[C@H](Cc1c[nH]cn1)NC(=O)[C@@H](N)CC(C)C)[C@@H](C)CC)C(=O)O [LHII] (H-LHII-OH) | – | – | 120000 | – | – | – | – | aggregates | sol | 0
12 | CSCC[C@H](NC(=O)[C@H](CCSC)NC(=O)[C@H](Cc1ccccc1)NC(=O)[C@@H](N)C(C)C)C(=O)O [VFMM] (H-VFMM-OH) | – | – | 120000 | – | – | – | – | fibre | gel | 1
13 | N[C@@H](Cc1ccccc1)C(=O)N[C@@H](CS)C(=O)N[C@@H](Cc1c[nH]c2ccccc12)C(=O)N[C@@H](Cc1c[nH]c2ccccc12)C(=O)O [FCWW] (H-FCWW-OH) | – | – | 120000 | – | – | – | – | aggregates | gel | 1
14 | CC[C@H](C)[C@H](N)C(=O)N[C@H](C(=O)N[C@H](C(=O)N[C@H](C(=O)O)[C@@H](C)CC)[C@@H](C)CC)[C@@H](C)CC [IIII] (H-IIII-OH) | – | – | 30000 | – | needle | gel | 1 | – | – | –
